# From ChEMBL document CHEMBL1201862, “PubChem BioAssay data set” (2004)
#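 Dose response: 5 concentrations. Exposure: 48 h. Format: 96-well plates. Endpoint: linear interpolation; highest concentration if not reached. At the GI50, growth is halved.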 Activity calls are given as the source filed them. Rule as the data show it: active = GI50 up to about 1.1 µM and inactive = higher.
# Legend:
# Assay in all cases: NCI anticancer screen, dose series, 48 h
# 786-0 = tested on: 786-0
# A549 = tested on: A549
# HCT-15 = tested on: HCT-15
# HOP-62 = tested on: HOP-62
# Hs-578T = tested on: Hs-578T
# K562 = tested on: K562
# KM12 = tested on: KM12
# M14 = tested on: M14
# MCF7 = tested on: MCF7
# MDA-MB-435 = tested on: MDA-MB-435
# MOLT-4 = tested on: MOLT-4
# NCI-H460 = tested on: NCI-H460
# RPMI-8226 = tested on: RPMI-8226
# RXF 393 = tested on: RXF 393
# SF-268 = tested on: SF-268
# SK-MEL-2 = tested on: SK-MEL-2
# SK-MEL-5 = tested on: SK-MEL-5
# SK-OV-3 = tested on: SK-OV-3
# U-251 = tested on: U-251
# SF-539 = tested on: SF-539
SMILES,GI50 (786-0),GI50 (A549),GI50 (HCT-15) [µM],GI50 (HOP-62),GI50 (Hs-578T),GI50 (K562),GI50 (KM12),GI50 (M14),GI50 (MCF7),GI50 (MDA-MB-435),GI50 (MOLT-4),GI50 (NCI-H460),GI50 (RPMI-8226),GI50 (RXF 393),GI50 (SF-268),GI50 (SK-MEL-2),GI50 (SK-MEL-5),GI50 (SK-OV-3),GI50 (U-251),GI50 (SF-539)
CCOC(=O)CCN1C(=O)c2c(NC(=O)C(=O)O)cccc2S1(=O)=O,> 100 µM (inactive),> 100 µM (inactive),> 100,> 100 µM (inactive),> 100 µM (inactive),> 100 µM (inactive),> 100 µM (inactive),> 100 µM (inactive),> 100 µM (inactive),> 100 µM (inactive),> 100 µM (inactive),> 100 µM (inactive),> 100 µM (inactive),> 100 µM (inactive),> 100 µM (inactive),> 100 µM (inactive),> 10 µM (inactive),> 100 µM (inactive),> 100 µM (inactive),
CCc1c(-c2ccc(OC)cc2)oc(OC)c(C)c1=O,> 100 µM (inactive),79.1 µM (inactive),> 100,> 100 µM (inactive),> 100 µM (inactive),34.2 µM (inactive),> 100 µM (inactive),> 100 µM (inactive),79.1 µM (inactive),> 100 µM (inactive),31.9 µM (inactive),40.5 µM (inactive),,> 100 µM (inactive),> 100 µM (inactive),> 100 µM (inactive),32.2 µM (inactive),> 100 µM (inactive),> 100 µM (inactive),> 100 µM (inactive)
O=C(O)C1CCCCC1C(=O)Nc1nc2ccccc2[nH]1 (configuration not stated),> 100 µM (inactive),> 100 µM (inactive),> 100,> 100 µM (inactive),> 100 µM (inactive),,> 100 µM (inactive),> 100 µM (inactive),> 100 µM (inactive),> 100 µM (inactive),39.5 µM (inactive),> 100 µM (inactive),> 100 µM (inactive),> 100 µM (inactive),> 100 µM (inactive),> 100 µM (inactive),> 100 µM (inactive),> 100 µM (inactive),> 100 µM (inactive),> 100 µM (inactive)
O=[N+]([O-])C(=C(Nc1ccccc1)Nc1ccccc1)C(Cl)=C(Cl)Cl,15.8 µM (inactive),17.7 µM (inactive),16.3,21.9 µM (inactive),21.7 µM (inactive),10.3 µM (inactive),24.9 µM (inactive),18.2 µM (inactive),12 µM (inactive),15.3 µM (inactive),,16.1 µM (inactive),32.8 µM (inactive),15.8 µM (inactive),18.7 µM (inactive),13.1 µM (inactive),13.8 µM (inactive),29 µM (inactive),20.2 µM (inactive),20.2 µM (inactive)
O=c1oc2ccc3ccccc3c2cc1-c1cn2c(n1)sc1ccccc12,> 100 µM (inactive),> 100 µM (inactive),> 100,> 100 µM (inactive),> 100 µM (inactive),2.69 µM (inactive),> 100 µM (inactive),> 100 µM (inactive),26.4 µM (inactive),> 100 µM (inactive),3.06 µM (inactive),> 100 µM (inactive),> 100 µM (inactive),> 100 µM (inactive),> 100 µM (inactive),> 100 µM (inactive),> 100 µM (inactive),> 100 µM (inactive),> 100 µM (inactive),
Nn1c(CCCCCCCCc2nnc(COc3ccccc3)n2N)nnc1COc1ccccc1,> 100 µM (inactive),> 100 µM (inactive),> 100,> 100 µM (inactive),> 100 µM (inactive),> 100 µM (inactive),> 100 µM (inactive),> 100 µM (inactive),> 100 µM (inactive),> 100 µM (inactive),> 100 µM (inactive),> 100 µM (inactive),> 100 µM (inactive),> 100 µM (inactive),> 100 µM (inactive),> 100 µM (inactive),> 100 µM (inactive),> 100 µM (inactive),> 100 µM (inactive),
CC(C)c1ccc(/C=C2\CSCC3=C2N=C2SCC(=O)N2C3c2ccc(C(C)C)cc2)cc1 (configuration not stated),> 100 µM (inactive),> 100 µM (inactive),> 100,> 100 µM (inactive),> 100 µM (inactive),> 100 µM (inactive),> 100 µM (inactive),> 100 µM (inactive),> 100 µM (inactive),> 100 µM (inactive),75.5 µM (inactive),> 100 µM (inactive),80.7 µM (inactive),,> 100 µM (inactive),> 100 µM (inactive),> 100 µM (inactive),> 100 µM (inactive),64.3 µM (inactive),> 100 µM (inactive)
CN(C)CCCNC(=O)c1cc(NC(=O)c2cc(NC(=O)c3cc(NC(=O)CCCn4ccc(CO)c4CO)cn3C)cn2C)cn1C,4.2 µM (inactive),14.5 µM (inactive),> 100,,22.1 µM (inactive),3.78 µM (inactive),> 100 µM (inactive),,3.27 µM (inactive),11.1 µM (inactive),4.74 µM (inactive),12.5 µM (inactive),,1.85 µM (inactive),3.83 µM (inactive),25.6 µM (inactive),2.71 µM (inactive),1.06 µM (active),2.77 µM (inactive),3.44 µM (inactive)
C/C(Nc1ccc(Cl)cc1)=C1/CCOC1=O,> 100 µM (inactive),4.89 µM (inactive),> 100,,> 100 µM (inactive),0.346 µM (active),0.618 µM (active),2.62 µM (inactive),13.2 µM (inactive),0.698 µM (active),1.93 µM (inactive),> 31.4 µM (inactive),1.27 µM (inactive),> 32.1 µM (inactive),> 100 µM (inactive),12.7 µM (inactive),1.13 µM (inactive),59.2 µM (inactive),> 100 µM (inactive),> 25.4 µM (inactive)
CN(C(=O)CCC(=O)O)c1ccccc1C(=O)O,> 100 µM (inactive),> 100 µM (inactive),> 100,,> 100 µM (inactive),> 100 µM (inactive),> 100 µM (inactive),> 100 µM (inactive),> 100 µM (inactive),> 100 µM (inactive),> 100 µM (inactive),> 100 µM (inactive),> 100 µM (inactive),> 100 µM (inactive),> 100 µM (inactive),> 100 µM (inactive),> 100 µM (inactive),> 100 µM (inactive),> 100 µM (inactive),> 100 µM (inactive)
CC1=C[C@@H](C)C[C@]2(C)CC[C@H](O2)[C@]23CC[C@](CO)(C[C@H](O2)[C@@H]2O[C@@](C)(CC2=O)[C@@H](O)[C@H]2CC[C@@]4(CCC[C@@H](O4)[C@H](C)C(=O)O[C@H]4C[C@H]([C@]5(O)OCC[C@H](C)[C@@H]5O)O[C@H]4C=C1)O2)O3,0.00843 µM (active),0.0294 µM (active),0.15,0.00345 µM (active),0.00163 µM (active),0.0183 µM (active),0.757 µM (active),0.0258 µM (active),> 10 µM (inactive),0.0249 µM (active),,0.0333 µM (active),> 10 µM (inactive),0.0118 µM (active),0.00279 µM (active),0.0513 µM (active),0.0142 µM (active),0.0177 µM (active),0.022 µM (active),0.00272 µM (active)
